Laboratory results as given in US9440957B2, “Compounds and compositions for modulating EGFR Activity” (Novartis AG, priority 2012, dated 2016).
Where two headings read alike, the source gives them in different places.

Key:
HCC827 (Del E746-A750) = HCC827 (Del E746-A750) (Homo sapiens, UniProt P00533, DEL746-750); experiment: EGFR target modulation in HCC827 cell line (phospho-EGFR Y1173 ELISA); assay type: cell-based
Procedure, shortened: (§1)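 3 h compound exposure of cells in 10% FBS/RPMI, 37 °C; lysis on ice 20 min; lysate captured overnight at 4 °C on anti-EGFR-coated plates; anti-rabbit-HRP, chemiluminescence.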

H1975 (EGFR L858/T790M) = H1975 (EGFR L858/T790M) (Homo sapiens, UniProt P00533, L858R/T790M); experiment: EGFR target modulation in H1975 cell line (phospho-EGFR Y1173 ELISA); assay type: cell-based
Procedure, shortened: as §1

H3255 (EGFR L858R) = H3255 (EGFR L858R) (Homo sapiens, UniProt P00533, L858R); experiment: EGFR target modulation in H3255 cell line (phospho-EGFR Y1173 ELISA); assay type: cell-based
Procedure, shortened: as §1

HaCaT (EGFR WT) = HaCaT (EGFR WT) (Homo sapiens, UniProt P00533); experiment: EGFR target modulation in HaCaT (EGFR-WT) cell line (phospho-EGFR Y1173 ELISA); assay type: cell-based; conditions: value in parentheses
Description: EGFR Target Modulation in HaCaT (EGFR-WT) Cell Line Tissue Culture. […] The serial diluted compounds were transferred to the plate containing cells by using a 50 nl Pin Head device (Perkin Elmer) and the cells were placed back in the incubator for 3 hours. […] Phospho-EGFR ([…]) ELISA. Solid white high-binding ELISA plates (Greiner #781074) were coated with 5 ug/ml anti-EGFR capture antibody (R&D Systems #AF231) overnight in 50 mM carbonate/bicarbonate pH 9.5 buffer. […] Wash steps were carried out with a Bio-Tek ELx405 SelectTM using 4 cycles of 100 ul TBS-T (20 mM Tris, 137 mM NaCl, 0.05% Tween-20) per well. […] Lysis was allowed to occur for 20 minutes on ice. A 25 ul aliquot was added to each well of the blocked ELISA plate and incubated overnight at 4° C. with gentle shaking. […] After washing, 1:2,000 anti-rabbit-HRP (Cell Signaling #7074) in 0.2% BSA/TBS-T was added and incubated for 1 hour at room temperature. Chemiluminescent detection was carried out with SuperSignal ELISA Pico substrate (ThermoScientific #37069). Signal was read on EnVision plate reader using built-in UltraLUM setting. Data Analysis. Control cells treated with EGF were set to 100% maximum response. […] With these parameters, the IC50's for each compound in each cell line was calculated using non-linear curve fitting analysis.

EGFR(L858R/T790M) = molecular target: T1, EGFR(L858R/T790M) (Homo sapiens, UniProt P00533, L858R/T790M); experiment: EGFR biochemical assay (HTRF), IC50 determinations
T1 construct: purchased from Carna (GST-a.a. 669-1210)
Procedure, shortened: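 Two formats were run: compound preincubated at room temperature with enzyme and biotin-TK peptide before ATP starts the reaction, or no preincubation with enzyme added last. Reactions ran 60 min at room temperature and were stopped with EDTA. Phosphopeptide was read by HTRF (PT66K/SAXL, 1 h).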

HEKn (EGFR WT) = HEKn (EGFR WT) (Homo sapiens, UniProt P00533); experiment: EGFR target modulation in HEKn (EGFR-WT) cell line (phospho-EGFR Y1173 ELISA); assay type: cell-based; conditions: value outside parentheses
Procedure, shortened: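 Read-out was Y1173 phosphorylation, measured by chemiluminescent ELISA with anti-EGFR capture of lysates. HEKn keratinocytes (wild-type EGFR) were treated with compound for 3 h.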

[1] = EGFR (L858R/T790M) with 90 min pre-incubation, read-out: IC50 (μM) Column B
[2] = EGFR (L858R/T790M) with no pre-incubation, read-out: IC50 (μM) Column A

Sequence of HCC827 (Del E746-A750) (P00533 with tags, fused parts or gaps DEL746-750): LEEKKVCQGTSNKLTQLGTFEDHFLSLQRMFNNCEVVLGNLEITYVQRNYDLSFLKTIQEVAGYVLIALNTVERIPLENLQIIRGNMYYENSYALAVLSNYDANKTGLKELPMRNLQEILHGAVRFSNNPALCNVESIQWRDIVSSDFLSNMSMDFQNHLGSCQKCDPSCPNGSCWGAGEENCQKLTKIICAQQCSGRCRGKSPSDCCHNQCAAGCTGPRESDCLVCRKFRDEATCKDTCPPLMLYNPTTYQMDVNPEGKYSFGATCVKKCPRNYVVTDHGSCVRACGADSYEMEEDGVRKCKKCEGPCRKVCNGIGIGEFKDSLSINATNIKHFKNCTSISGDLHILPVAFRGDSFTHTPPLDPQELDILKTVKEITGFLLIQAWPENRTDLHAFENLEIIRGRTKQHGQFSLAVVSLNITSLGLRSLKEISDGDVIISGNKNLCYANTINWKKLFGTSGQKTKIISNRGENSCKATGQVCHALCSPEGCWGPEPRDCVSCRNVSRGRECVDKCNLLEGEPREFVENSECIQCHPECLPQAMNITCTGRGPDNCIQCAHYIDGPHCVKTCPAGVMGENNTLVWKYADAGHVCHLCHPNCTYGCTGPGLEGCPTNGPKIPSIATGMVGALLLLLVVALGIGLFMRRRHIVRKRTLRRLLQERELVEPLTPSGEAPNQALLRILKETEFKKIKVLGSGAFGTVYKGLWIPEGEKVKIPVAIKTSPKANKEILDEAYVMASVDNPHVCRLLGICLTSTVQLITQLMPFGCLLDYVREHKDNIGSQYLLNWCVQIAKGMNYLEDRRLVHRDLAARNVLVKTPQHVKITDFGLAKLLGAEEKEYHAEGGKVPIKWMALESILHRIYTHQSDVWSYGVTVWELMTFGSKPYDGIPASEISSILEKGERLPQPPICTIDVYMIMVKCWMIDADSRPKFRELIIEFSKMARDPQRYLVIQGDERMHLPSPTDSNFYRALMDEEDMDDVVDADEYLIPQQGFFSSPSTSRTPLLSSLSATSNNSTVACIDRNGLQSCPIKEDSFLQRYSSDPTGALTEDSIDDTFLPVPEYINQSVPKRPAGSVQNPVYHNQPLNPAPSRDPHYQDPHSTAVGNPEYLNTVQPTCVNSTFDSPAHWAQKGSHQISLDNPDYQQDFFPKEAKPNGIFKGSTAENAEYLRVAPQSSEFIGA
Sequence of H1975 (EGFR L858/T790M) (P00533 25-1210 T790M/L858R): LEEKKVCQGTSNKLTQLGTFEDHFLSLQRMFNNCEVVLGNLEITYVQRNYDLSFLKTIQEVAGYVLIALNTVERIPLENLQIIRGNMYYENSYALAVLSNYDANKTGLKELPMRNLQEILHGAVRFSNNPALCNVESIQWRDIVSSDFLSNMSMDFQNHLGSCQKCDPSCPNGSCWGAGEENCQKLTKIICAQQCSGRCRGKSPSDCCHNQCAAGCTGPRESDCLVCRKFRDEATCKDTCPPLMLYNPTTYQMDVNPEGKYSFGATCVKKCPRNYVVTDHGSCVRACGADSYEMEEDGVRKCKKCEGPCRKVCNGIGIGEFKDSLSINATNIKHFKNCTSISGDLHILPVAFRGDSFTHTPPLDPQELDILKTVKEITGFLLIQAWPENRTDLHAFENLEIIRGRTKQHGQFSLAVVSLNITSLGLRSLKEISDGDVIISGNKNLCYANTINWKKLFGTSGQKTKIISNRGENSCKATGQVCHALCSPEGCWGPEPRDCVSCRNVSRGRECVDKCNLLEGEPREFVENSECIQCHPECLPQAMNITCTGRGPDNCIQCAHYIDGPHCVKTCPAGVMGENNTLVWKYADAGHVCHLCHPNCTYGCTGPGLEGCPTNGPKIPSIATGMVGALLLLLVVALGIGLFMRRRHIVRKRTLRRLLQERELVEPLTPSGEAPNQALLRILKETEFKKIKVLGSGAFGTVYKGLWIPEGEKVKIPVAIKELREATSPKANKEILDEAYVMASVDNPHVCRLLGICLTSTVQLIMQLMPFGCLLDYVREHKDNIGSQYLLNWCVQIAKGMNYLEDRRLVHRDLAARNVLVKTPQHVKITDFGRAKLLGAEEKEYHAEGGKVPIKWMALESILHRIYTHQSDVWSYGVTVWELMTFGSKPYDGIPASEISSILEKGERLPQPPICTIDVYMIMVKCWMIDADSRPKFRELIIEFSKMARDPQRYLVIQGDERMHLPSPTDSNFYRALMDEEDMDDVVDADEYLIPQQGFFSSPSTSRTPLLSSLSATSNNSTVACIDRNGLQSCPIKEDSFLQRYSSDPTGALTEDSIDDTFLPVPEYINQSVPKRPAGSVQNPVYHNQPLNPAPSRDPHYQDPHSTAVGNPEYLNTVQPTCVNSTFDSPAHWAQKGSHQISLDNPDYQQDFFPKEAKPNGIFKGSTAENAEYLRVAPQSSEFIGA
Sequence of HaCaT (EGFR WT) (P00533 25-1210): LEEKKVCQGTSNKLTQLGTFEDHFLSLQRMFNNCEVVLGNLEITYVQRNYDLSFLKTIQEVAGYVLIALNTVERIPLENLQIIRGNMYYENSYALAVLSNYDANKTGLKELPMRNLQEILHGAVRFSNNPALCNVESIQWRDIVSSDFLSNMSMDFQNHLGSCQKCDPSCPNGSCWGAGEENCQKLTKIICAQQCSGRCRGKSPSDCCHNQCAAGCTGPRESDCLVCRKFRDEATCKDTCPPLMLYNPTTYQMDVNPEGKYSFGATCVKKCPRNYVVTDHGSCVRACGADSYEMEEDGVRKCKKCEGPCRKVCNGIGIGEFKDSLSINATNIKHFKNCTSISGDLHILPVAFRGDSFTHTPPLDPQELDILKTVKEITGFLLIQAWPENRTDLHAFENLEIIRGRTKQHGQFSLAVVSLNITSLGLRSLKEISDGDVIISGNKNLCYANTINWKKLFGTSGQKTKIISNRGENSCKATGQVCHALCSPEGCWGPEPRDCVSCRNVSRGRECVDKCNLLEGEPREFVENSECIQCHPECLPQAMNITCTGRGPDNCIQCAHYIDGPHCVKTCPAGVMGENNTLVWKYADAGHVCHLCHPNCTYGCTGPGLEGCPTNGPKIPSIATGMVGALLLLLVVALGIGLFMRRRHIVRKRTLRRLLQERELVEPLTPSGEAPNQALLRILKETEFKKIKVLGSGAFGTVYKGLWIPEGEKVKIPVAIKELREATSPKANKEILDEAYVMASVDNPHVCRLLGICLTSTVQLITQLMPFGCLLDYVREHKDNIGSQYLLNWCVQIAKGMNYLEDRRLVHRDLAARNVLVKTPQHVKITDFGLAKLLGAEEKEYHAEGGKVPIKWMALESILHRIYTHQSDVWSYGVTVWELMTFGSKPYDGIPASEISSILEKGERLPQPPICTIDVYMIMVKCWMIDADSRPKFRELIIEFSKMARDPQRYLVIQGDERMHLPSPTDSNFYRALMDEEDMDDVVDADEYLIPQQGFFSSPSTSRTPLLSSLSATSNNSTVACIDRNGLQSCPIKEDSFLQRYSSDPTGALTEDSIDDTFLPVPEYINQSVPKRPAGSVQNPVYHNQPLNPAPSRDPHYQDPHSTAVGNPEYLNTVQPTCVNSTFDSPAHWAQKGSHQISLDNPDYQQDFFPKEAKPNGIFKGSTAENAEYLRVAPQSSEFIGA
Sequence of H3255 (EGFR L858R) (P00533 25-1210 L858R): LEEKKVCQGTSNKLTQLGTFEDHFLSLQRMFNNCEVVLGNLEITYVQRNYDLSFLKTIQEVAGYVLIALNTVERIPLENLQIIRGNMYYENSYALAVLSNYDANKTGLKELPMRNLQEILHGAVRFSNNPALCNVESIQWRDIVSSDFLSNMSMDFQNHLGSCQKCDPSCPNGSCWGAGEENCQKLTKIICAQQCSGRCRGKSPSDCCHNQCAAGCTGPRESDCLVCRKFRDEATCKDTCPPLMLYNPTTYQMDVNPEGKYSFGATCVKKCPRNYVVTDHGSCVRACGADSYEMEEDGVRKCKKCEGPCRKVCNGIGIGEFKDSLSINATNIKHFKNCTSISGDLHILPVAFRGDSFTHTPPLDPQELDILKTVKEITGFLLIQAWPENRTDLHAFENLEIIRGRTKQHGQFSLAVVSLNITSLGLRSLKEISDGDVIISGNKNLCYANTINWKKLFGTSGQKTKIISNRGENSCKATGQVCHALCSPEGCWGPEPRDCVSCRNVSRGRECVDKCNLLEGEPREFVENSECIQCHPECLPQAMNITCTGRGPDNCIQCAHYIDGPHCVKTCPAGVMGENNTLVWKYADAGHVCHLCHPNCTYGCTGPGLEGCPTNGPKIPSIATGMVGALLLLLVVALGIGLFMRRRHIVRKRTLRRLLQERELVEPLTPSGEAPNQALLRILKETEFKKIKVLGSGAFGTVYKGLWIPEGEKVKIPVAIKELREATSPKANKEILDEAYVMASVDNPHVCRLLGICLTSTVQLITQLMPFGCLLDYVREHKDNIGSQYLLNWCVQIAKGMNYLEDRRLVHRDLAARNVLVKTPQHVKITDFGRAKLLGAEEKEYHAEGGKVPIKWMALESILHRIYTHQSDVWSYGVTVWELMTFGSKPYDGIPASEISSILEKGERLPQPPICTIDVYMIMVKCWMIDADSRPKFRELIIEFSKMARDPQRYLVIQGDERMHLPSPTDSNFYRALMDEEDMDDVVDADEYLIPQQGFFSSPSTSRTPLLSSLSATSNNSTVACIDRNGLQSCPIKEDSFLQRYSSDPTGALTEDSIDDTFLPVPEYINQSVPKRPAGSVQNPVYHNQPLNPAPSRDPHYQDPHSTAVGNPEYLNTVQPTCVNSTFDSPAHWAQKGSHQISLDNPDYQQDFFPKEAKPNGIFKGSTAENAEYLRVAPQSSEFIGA

SMILES	IC50 (HCC827 (Del E746-A750))	IC50 (H1975 (EGFR L858/T790M))	IC50 (H3255 (EGFR L858R))	IC50 (HaCaT (EGFR WT))	IC50 (EGFR(L858R/T790M); [1])	IC50 (EGFR(L858R/T790M); [2])	IC50 (HEKn (EGFR WT))
C=CC(=O)N1CCCC[C@@H](n2c(NC(=O)c3cc(C)nc(C)c3)nc3cc(CN4CCN(C)C(=O)C4)cc(C)c32)C1 [Example 17-180]	1 nM	1 nM	1 nM	92 nM	< 0.001 µM	0.003 µM	–
C=CC(=O)N1CCCC[C@@H](n2c(NC(=O)c3cc(C)nc(C)c3)nc3cc(CN4CCN(C(C)=O)CC4)cc(C)c32)C1 [Example 17-181]	1 nM	1 nM	1 nM	77 nM	< 0.001 µM	0.003 µM	–
CNC/C=C/C(=O)N1CCCC[C@@H](n2c(NC(=O)c3ccnc(C)c3)nc3cccc(Cl)c32)C1 [Example 17-185]	1 nM	1 nM	2 nM	44 nM	< 0.001 µM	0.002 µM	44 nM
CNC/C=C/C(=O)N1CCCC[C@@H](n2c(NC(=O)c3cc(C)nc(C)c3)nc3cccc(Cl)c32)C1 [Example 17-186]	2 nM	2 nM	10 nM	213 nM	< 0.001 µM	0.004 µM	291 nM
Cc1cc(C(=O)Nc2nc3cccc(C(F)(F)F)c3n2[C@@H]2CCCCN(C(=O)/C=C/CN(C)C)C2)ccn1 [Example 17-187]	2 nM	13 nM	14 nM	475 nM	0.001 µM	0.022 µM	–
Cc1cc(C(=O)Nc2nc3cccc(C(F)(F)F)c3n2[C@@H]2CCCCN(C(=O)/C=C/CN(C)C)C2)cc(C)n1 [Example 17-188]	10 nM	16 nM	39 nM	870 nM	0.003 µM	0.04 µM	–
C=CC(=O)N1CCCC[C@@H](n2c(NC(=O)c3ccnc(C)c3)nc3ccc(OCCN4CCCC4)c(Cl)c32)C1 [Example 17-193]	1 nM	1 nM	2 nM	44 nM	< 0.001 µM	0.002 µM	–
C/C=C/C(=O)N1CCCC[C@@H](n2c(NC(=O)c3ccnc(C)c3)nc3ccc(OCCN4CCCC4)c(Cl)c32)C1 [Example 17-194]	16 nM	41 nM	67 nM	576 nM	0.006 µM	0.068 µM	–
C/C=C/C(=O)N1CCCC[C@@H](n2c(NC(=O)c3cc(C)nc(C)c3)nc3ccc(OCCN4CCCC4)c(Cl)c32)C1 [Example 17-195]	45 nM	36 nM	181 nM	7120 nM	0.007 µM	0.116 µM	–
